{"source": "patent US11160806B2", "about": "“Salt of N-(2,6-diethylphenyl)-8-({4-[4-(dimethylamino) piperidin-1-yl]-2-methoxyphenyl}amino)-1-methyl-4,5-dihydro-1H-pyrazolo[4,3-h]quinazoline-3-carboxamide, its preparation, and formulations containing it” (LES LABORATOIRES SERVIER, priority 2017, dated 2021)", "key": {"[1]": {"test": "Preliminary solubility test, in situ salt formation from the amorphous base in water at room temperature", "assay_type": "physicochemical"}, "[2]": {"test": "Solubility of phosphate salt crystalline form I in water (WFI) or NaCl 0.9% at room temperature, HPLC", "assay_type": "physicochemical", "details": "for Solubility 1 hour / Solubility 24 hours: room temperature", "description": "Testing conditions: about 730 mg of testing compound were suspended in 4 ml of WFI (water for injection) or Saline (0.9% NaCl) to test a target solubility of 150 mg/ml as free base. The suspensions were magnetically stirred for 24 hours at room temperature and protected from light in amber glass vial. Testing compound concentrations were determined after 1 and 24 hours."}, "[3]": {"test": "Hygroscopicity by Dynamic Vapour Sorption", "assay_type": "physicochemical", "description": "The compound to be tested is submitted to hygroscopicity test by means of a Dynamic Vapour Sorption apparatus (DVS 1000—Surface Measurement Systems).\nThe apparatus is briefly defined as a “controlled atmosphere microbalance” where the weighed sample is exposed to variations of the relative humidity (RH) at a constant and controlled temperature. An exactly weighed amount of the product (generally 5-10 mg) was analysed."}, "[4]": {"biological_target": "T1, MPS1 (Monopolar Spindle 1) kinase, also known as TTK (Homo sapiens, UniProt P33981)", "T1 sequence (P33981 1-857)": "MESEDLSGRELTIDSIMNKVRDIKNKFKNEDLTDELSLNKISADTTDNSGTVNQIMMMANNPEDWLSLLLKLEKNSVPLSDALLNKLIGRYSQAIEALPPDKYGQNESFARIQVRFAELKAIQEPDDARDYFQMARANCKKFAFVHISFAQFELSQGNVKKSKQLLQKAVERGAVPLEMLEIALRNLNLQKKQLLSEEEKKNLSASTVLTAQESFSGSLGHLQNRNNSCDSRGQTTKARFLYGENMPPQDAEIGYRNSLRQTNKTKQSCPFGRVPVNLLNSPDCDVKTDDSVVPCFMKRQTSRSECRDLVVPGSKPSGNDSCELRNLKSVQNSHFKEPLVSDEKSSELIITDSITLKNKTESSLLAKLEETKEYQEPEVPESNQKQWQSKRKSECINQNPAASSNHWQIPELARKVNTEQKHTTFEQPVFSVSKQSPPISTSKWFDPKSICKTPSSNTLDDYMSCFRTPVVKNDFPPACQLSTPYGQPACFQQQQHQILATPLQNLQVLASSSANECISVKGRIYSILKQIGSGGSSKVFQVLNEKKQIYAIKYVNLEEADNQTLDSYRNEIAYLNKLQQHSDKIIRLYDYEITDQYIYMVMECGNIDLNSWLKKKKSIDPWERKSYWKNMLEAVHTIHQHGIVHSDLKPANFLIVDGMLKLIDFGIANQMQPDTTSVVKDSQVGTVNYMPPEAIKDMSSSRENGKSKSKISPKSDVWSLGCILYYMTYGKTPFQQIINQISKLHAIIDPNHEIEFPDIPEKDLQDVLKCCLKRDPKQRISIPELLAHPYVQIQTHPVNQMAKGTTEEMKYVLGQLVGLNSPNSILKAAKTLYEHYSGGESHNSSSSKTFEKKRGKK", "details": "cited from earlier work"}, "[5]": {"test": "Stability over time under denaturing conditions (40° C./75% RH), chemical purity", "assay_type": "physicochemical", "description": "The compound of formula (II) according to the invention has a good stability over time under denaturing conditions (40° C./75% Relative Humidity (RH)): […]"}, "[6]": {"test": "Purity and stability under long term conditions", "assay_type": "physicochemical", "text": "Purity and stability of N-(2,6-diethylphenyl)-8-({4-[4-(dimethylamino) piperidin-1-yl]-2-methoxy phenyl}amino)-1-methyl-4,5-dihydro-1H-pyrazolo[4,3-h]quinazoline-3-carboxamide phosphate Form I have been tested under long term conditions as follows: […]"}}}
{"compound": "CCc1cccc(CC)c1NC(=O)c1nn(C)c2c1CCc1cnc(Nc3ccc(N4CCC(N(C)C)CC4)cc3OC)nc1-2", "note": "[Free Base, N-(2,6-diethylphenyl)-8-({4-[4-(dimethylamino)piperidin-1-yl]-2-methoxyphenyl}amino)-1-methyl-4,5-dihydro-1H-pyrazolo[4,3-h]quinazoline-3-carboxamide]", "values": [{"measurement": "Solubility 1 hour", "setting": "[1]; water, 1 hour", "value": "<0.001", "unit": "mg/ml as free base"}, {"measurement": "Solubility 24 hours", "setting": "[1]; water, 24 hours", "value": "<0.001", "unit": "mg/ml as free base"}, {"measurement": "Solubility 1 hour", "setting": "[2]; water", "value": "<0.001", "unit": "mg/ml as free base"}, {"measurement": "Solubility 24 hours", "setting": "[2]; water", "value": "<0.001", "unit": "mg/ml as free base"}, {"measurement": "Water uptake at 30% RH", "setting": "[3]", "value": 0.4, "unit": "%"}, {"measurement": "Water uptake at 60% RH", "setting": "[3]", "value": 1, "unit": "%"}, {"measurement": "Water uptake at 90% RH", "setting": "[3]", "value": 2.8, "unit": "%"}, {"measurement": "Ability to inhibit MPS1 kinase", "setting": "[4]", "value": "has the ability to inhibit MPS1"}]}
{"compound": "CCc1cccc(CC)c1NC(=O)c1nn(C)c2c1CCc1cnc(Nc3ccc(N4CCC(N(C)C)CC4)cc3OC)nc1-2.O=P(O)(O)O", "note": "[Phosphate salt, N-(2,6-diethylphenyl)-8-({4-[4-(dimethylamino)piperidin-1-yl]-2-methoxyphenyl}amino)-1-methyl-4,5-dihydro-1H-pyrazolo[4,3-h]quinazoline-3-carboxamide phosphate]", "values": [{"measurement": "Chemical purity", "setting": "[5]; 1 month 40° C./75% RH Open bottle", "value": 99.4, "unit": "%"}, {"measurement": "Chemical purity", "setting": "[5]; t0", "value": 99.5, "unit": "%"}, {"measurement": "Improvement of solubility versus the free base", "setting": "[1]", "value": "at least 24 000 times"}, {"measurement": "Improvement of solubility versus the hydrochloride salt", "setting": "[1]", "value": "at least 25 times"}, {"measurement": "Solubility 1 hour", "setting": "[2]; NaCl 0.9%", "value": 81.0, "unit": "mg/ml as free base"}, {"measurement": "Solubility 24 hours", "setting": "[2]; NaCl 0.9%", "value": 133.6, "unit": "mg/ml as free base"}, {"measurement": "Solubility at room temperature", "setting": "[2]; both in water and in NaCl 0.9%", "value": "at least 130 mg/ml expressed as free base"}, {"measurement": "Solubility 1 hour", "setting": "[2]; water", "value": 87.5, "unit": "mg/ml as free base"}, {"measurement": "Solubility 24 hours", "setting": "[2]; water", "value": 130.2, "unit": "mg/ml as free base"}, {"measurement": "Water uptake at 30% RH", "setting": "[3]", "value": 0.4, "unit": "%"}, {"measurement": "Water uptake at 60% RH", "setting": "[3]", "value": 1, "unit": "%"}, {"measurement": "Water uptake at 90% RH", "setting": "[3]", "value": 2.5, "unit": "%"}, {"measurement": "Appearance", "setting": "[6]; 1 month 5° C.", "value": "Yellow"}, {"measurement": "Drug substance", "setting": "[6]; 1 month 5° C.", "value": 99.94, "unit": "%"}, {"measurement": "Total amount of impurities", "setting": "[6]; 1 month 5° C.", "value": 0.06, "unit": "%"}, {"measurement": "Appearance", "setting": "[6]; 1 month 25° C./60% RH", "value": "Yellow"}, {"measurement": "Drug substance", "setting": "[6]; 1 month 25° C./60% RH", "value": 99.93, "unit": "%"}, {"measurement": "Total amount of impurities", "setting": "[6]; 1 month 25° C./60% RH", "value": 0.07, "unit": "%"}, {"measurement": "Appearance", "setting": "[6]; 3 months 5° C.", "value": "Yellow"}, {"measurement": "Drug substance", "setting": "[6]; 3 months 5° C.", "value": 99.93, "unit": "%"}, {"measurement": "Total amount of impurities", "setting": "[6]; 3 months 5° C.", "value": 0.07, "unit": "%"}, {"measurement": "Appearance", "setting": "[6]; 3 months 25° C./60% RH", "value": "Yellow"}, {"measurement": "Drug substance", "setting": "[6]; 3 months 25° C./60% RH", "value": 99.93, "unit": "%"}, {"measurement": "Total amount of impurities", "setting": "[6]; 3 months 25° C./60% RH", "value": 0.07, "unit": "%"}, {"measurement": "Appearance", "setting": "[6]; 9 months 5° C.", "value": "Yellow"}, {"measurement": "Drug substance", "setting": "[6]; 9 months 5° C.", "value": 99.93, "unit": "%"}, {"measurement": "Total amount of impurities", "setting": "[6]; 9 months 5° C.", "value": 0.07, "unit": "%"}, {"measurement": "Appearance", "setting": "[6]; 12 months 5° C.", "value": "Yellow"}, {"measurement": "Crystalline Form (XRD assessment)", "setting": "[6]; 12 months 5° C.", "value": "Form I"}, {"measurement": "Drug substance", "setting": "[6]; 12 months 5° C.", "value": 99.94, "unit": "%"}, {"measurement": "Total amount of impurities", "setting": "[6]; 12 months 5° C.", "value": 0.06, "unit": "%"}, {"measurement": "Appearance", "setting": "[6]; 24 months 5° C.", "value": "Yellow"}, {"measurement": "Crystalline Form (XRD assessment)", "setting": "[6]; 24 months 5° C.", "value": "Form I"}, {"measurement": "Drug substance", "setting": "[6]; 24 months 5° C.", "value": 99.91, "unit": "%"}, {"measurement": "Total amount of impurities", "setting": "[6]; 24 months 5° C.", "value": 0.09, "unit": "%"}, {"measurement": "Time over which the substance is stable", "setting": "[6]; long term conditions", "value": "≥ 24", "unit": "months"}, {"measurement": "Appearance", "setting": "[6]; t0", "value": "Yellow"}, {"measurement": "Crystalline Form (XRD assessment)", "setting": "[6]; t0", "value": "Form I"}, {"measurement": "Drug substance", "setting": "[6]; t0", "value": 99.94, "unit": "%"}, {"measurement": "Total amount of impurities", "setting": "[6]; t0", "value": 0.06, "unit": "%"}]}
